In patent US7534809B2, “Phospho-indoles as HIV inhibitors” (priority 2004, dated 2009):
Values after ≈ are worked out from the molar mass of the structure shown. Like-named read-outs stand apart in the source and are kept apart here.

What was measured:
[1] = Metabolic stability in rat liver microsomes; assay type: in vitro ADME; details: 10 μM, 1 mg/mL microsomes, 37° C., 2 hrs
Excerpt: (§1) The metabolic stability assay is to evaluate the stability of test compound in biological matrices. Data are useful in terms of understanding and predicting the elimination mechanisms of the test compound. CYP450-dependent metabolism of drugs can also vary widely from one species to another. Evaluating in vitro metabolism of a drug by liver microsomes from multiple species allows the comparison of metabolism in animal species to that of humans. This can help identify the most relevant animal model for PK and toxicology studies. The metabolic stability of a test compound was evaluated in vitro in liver microsomes of the rat, dog, monkey, and human. 10 μM of the test compound was pre-incubated for 5 min at 37° C. with 1 mg/mL liver microsomes in 0.1M Tris buffer, pH 7.4 containing 5 mM MgCl2 and 0.1 mM EDTA. Following pre-incubation, NADPH (final concentration of 3 mM) was added to start the reaction and samples incubated for 0 and 1 or 2 hours. After terminating the reaction, the supernatant was analyzed by HPLC-UV or LC/MS/MS for the disappearance of the parent and formation of metabolite(s). The %parent remaining was the peak area ratio of the 1 or 2 hr sample to the time 0 sample. In general, less metabolism (higher % parent values) is more desirable.

[2] = Metabolic stability in human liver microsomes; assay type: in vitro ADME; details: 10 μM, 1 mg/mL microsomes, 37° C., 2 hrs
Excerpt: as §1

[3] = Human plasma protein binding, equilibrium dialysis; assay type: in vitro ADME; details: pooled human plasma, 37° C., about 6 hours, 1 μM drug, read-out: Protein binding (human plasma) % Free
Experimental: The human plasma protein binding was determined using the Equilibrium Dialysis method. Dialysis was conducted with pooled human plasma at 37° C. for approximately 6 hours at a drug concentration of 1 μM. At the end of the dialysis, buffer samples from the buffer-side of the dialysis cell were collected and analyzed by LC/MS/MS for free drug concentration. For NNRTIs, a lower protein binding is more desirable.

CYP2C9 = target: T1, CYP2C9 (Homo sapiens, UniProt P11712); experiment: CYP450 inhibition, CYP2C9 P450-Glo assay kit; assay type: in vitro ADME
T1 construct: purchased Promega
T1 sequence (P11712 whole entry): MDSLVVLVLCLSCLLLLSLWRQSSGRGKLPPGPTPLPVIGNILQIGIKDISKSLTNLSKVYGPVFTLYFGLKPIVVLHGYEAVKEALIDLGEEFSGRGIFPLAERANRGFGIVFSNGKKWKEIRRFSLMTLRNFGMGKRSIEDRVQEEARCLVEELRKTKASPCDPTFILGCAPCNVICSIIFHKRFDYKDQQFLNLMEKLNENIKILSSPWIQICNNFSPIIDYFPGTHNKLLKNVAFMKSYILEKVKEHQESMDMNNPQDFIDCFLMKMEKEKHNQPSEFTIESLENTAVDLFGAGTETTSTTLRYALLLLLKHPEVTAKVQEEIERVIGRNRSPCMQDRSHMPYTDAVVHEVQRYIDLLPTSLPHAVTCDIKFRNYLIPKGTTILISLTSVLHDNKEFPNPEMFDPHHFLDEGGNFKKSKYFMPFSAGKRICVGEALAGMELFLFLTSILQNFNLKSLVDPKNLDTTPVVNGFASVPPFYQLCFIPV
Excerpt: (§2) In vitro CYP450 inhibition screening allows for the prediction of potential drug-drug interactions. […] Potency and rank order of the inhibition can be assessed by determination of the IC50 values for a particular isozyme.
(§3) CYP3A4 inhibition was screened using the CYP3A4/BFC high throughput inhibitor screening kit (BD Biosciences), CYP2D6 inhibition was screened using the CYP2D6/AMMC high throughput inhibitor screening kit (BD Biosciences), and CYP2C9 inhibition was screened using the P450-Glo™ Assay kit (Promega).

[4] = Metabolic stability in dog liver microsomes; assay type: in vitro ADME; details: 10 μM, 1 mg/mL microsomes, 37° C., 2 hrs
Excerpt: as §1

[5] = pH dependent aqueous solubility, shake-flask method; assay type: physicochemical; details: aqueous solution, thermodynamic from solid, saturated concentration 1 mM
Experimental: The aqueous solubility of each compound was determined by the conventional shake-flask method at a saturated concentration of 1 mM. The flask (vial) was shaken for 3 hrs at ambient temperature, and then centrifuged. The supernatant was analyzed by HPLC with UV detection for solubility determination. In general, a higher aqueous solubility is more desirable for drug candidates.

[6] = Metabolic stability in monkey liver microsomes; assay type: in vitro ADME; details: 10 μM, 1 mg/mL microsomes, 37° C., 2 hrs
Excerpt: as §1

CYP3A4 = target: T2, CYP3A4 (Homo sapiens, UniProt P08684); experiment: CYP450 inhibition, CYP3A4/BFC screening kit; assay type: in vitro ADME
T2 construct: purchased BD Biosciences
T2 sequence (P08684 whole entry): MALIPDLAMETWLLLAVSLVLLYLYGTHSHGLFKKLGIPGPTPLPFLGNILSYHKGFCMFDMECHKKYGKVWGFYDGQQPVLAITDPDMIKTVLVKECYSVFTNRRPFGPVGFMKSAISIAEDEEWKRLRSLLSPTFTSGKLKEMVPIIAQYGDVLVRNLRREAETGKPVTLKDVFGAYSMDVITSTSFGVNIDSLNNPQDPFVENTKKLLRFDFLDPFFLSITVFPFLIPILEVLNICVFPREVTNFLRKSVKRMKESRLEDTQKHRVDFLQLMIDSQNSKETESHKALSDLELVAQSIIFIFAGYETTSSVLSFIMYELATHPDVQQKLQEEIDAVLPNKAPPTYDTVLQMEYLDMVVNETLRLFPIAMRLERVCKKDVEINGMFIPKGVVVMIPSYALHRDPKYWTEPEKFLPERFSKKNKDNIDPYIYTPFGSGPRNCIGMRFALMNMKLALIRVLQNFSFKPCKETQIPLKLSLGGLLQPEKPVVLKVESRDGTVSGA
Excerpt: as §2, §3

CYP2D6 = target: T3, CYP2D6 (Homo sapiens, UniProt P10635); experiment: CYP450 inhibition, CYP2D6/AMMC screening kit; assay type: in vitro ADME
T3 construct: purchased BD Biosciences
T3 sequence (P10635 whole entry): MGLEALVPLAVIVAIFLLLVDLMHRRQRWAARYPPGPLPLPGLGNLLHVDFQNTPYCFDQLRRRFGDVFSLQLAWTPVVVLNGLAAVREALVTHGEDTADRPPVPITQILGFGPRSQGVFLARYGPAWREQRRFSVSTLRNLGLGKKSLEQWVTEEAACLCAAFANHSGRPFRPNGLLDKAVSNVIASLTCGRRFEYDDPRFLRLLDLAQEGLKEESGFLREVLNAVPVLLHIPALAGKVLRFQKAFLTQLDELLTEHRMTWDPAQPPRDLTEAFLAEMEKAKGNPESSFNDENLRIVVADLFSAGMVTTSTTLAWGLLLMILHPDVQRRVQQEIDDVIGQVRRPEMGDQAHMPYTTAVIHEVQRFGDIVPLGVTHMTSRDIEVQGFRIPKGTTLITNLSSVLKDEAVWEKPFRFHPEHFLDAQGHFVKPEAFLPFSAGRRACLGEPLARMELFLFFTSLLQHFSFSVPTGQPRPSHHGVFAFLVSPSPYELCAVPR
Excerpt: as §2, §3

[7] = In vitro metabolism in liver microsomes, metabolic pathway; assay type: in vitro ADME, rat, dog, monkey, and human; details: LC/MS/MS metabolite profiling
Experimental: Phase I biotransformation of a test compound is evaluated in this assay. Samples from the metabolic stability experiment were analyzed by LC/MS/MS for metabolite profiling and identification. Structures of metabolites were elucidated based on multiple MS/MS experiments such as full scan, neutral loss scan, and product ion scan. Metabolic pathways were then postulated based on the structures of major metabolites. For compounds from the phosphinate series, N-oxidation of the terminal pyridine ring is the predominant pathway, followed by the oxidation of the dimethyl-phenyl group, where the methyl group(s) is hydroxylated, further oxidized to an aldehyde, and finally to a carboxylic acid. The elucidation of metabolic pathways is important in terms of understanding the elimination mechanism of a test compound and assisting the design of new molecules with improved DM-PK profiles.

[8] = PK and oral bioavailability in the rat; assay type: in vivo, Sprague-Dawley rats; details: for half-life: PEG400, read-out: T½ (converted)
Experimental: (§4) The pharmacokinetics of a test compound was evaluated in Sprague-Dawley rats and Beagle dogs. A typical PK study involved dosing of 2 to 3 animals via a single IV bolus injection at 1 mg/kg and another 3 animals via a single oral gavage at 5 mg/kg. Blood samples were collected at various time points over a 24-hr period. Plasma was separated and analyzed for test compound and its metabolite(s) by LC/MS/MS. PK parameters were calculated from the plasma concentration—time profile using a noncompartmental method. Oral bioavailability (F) was calculated based on dose-normalized AUC values from oral and IV administration. Higher oral bioavailability values are better.

[9] = PK and oral bioavailability in the dog; assay type: in vivo, Beagle dogs
Experimental: as §4

[10] = test system: mutant forms such as K103N/M184V/NAMS and K103N/Y181C/M184V/NAMS; experiment: MDRC4 and CNDO cell-based assays versus other mutant forms; parameters: species or system HIV; details: Human immunodeficiency virus 1, read-out: EC50 values
[11] = pH 1, simulated gastric fluid, pH1, ambient temperature, read-out: Aqueous solubility pH1
[12] = pH 3, aqueous buffer, pH3, ambient temperature, read-out: Aqueous solubility pH3
[13] = pH 7, aqueous buffer, pH7, ambient temperature, read-out: Aqueous solubility pH7
[14] = pH 9, aqueous buffer, pH9, ambient temperature, read-out: Aqueous solubility pH9
[15] = Sprague-Dawley, plasma, IV, 1.0 mg/kg, PEG400
[16] = Sprague-Dawley, plasma, PO, 5.0 mg/kg, PEG400
[17] = Beagle, plasma, IV, 1.0 mg/kg, PEG400
[18] = Beagle, plasma, PO, 5.0 mg/kg, 0.5% MC

Q: With `COP(=O)(c1cc(C)cc(C)c1)c1c(C(=O)NCc2cc[n+]([O-])cc2)[nH]c2ccc(Cl)c(F)c12` (stereo not drawn) [Compound B] as the compound, how does the “Metabolic stability in liver microsomes % Parent after 2 hrs, Rat” value [1] read?
A: Its value is 1%.

Q: And the “Metabolic stability in liver microsomes % Parent after 2 hrs, Human” value [2]?
A: Its value is 94%.

Q: What about the fraction unbound at 6 h, 1 μM [3] of the same compound?
A: Its fraction unbound at 6 h, 1 μM is 0.038.

Q: What about the IC50 (CYP2C9) of the same compound?
A: Its IC50 is over 10 µM.

Q: And the “Metabolic stability in liver microsomes % Parent after 2 hrs, Dog” value [4]?
A: The value was 85%.

Q: What about the solubility at 3 h [5, 11] of the same compound?
A: Its solubility at 3 h is 190 µM (≈ 95.4 µg/mL).

Q: And the solubility at 3 h [5, 12]?
A: Its solubility at 3 h is 170 µM (≈ 85.3 µg/mL).

Q: And the solubility at 3 h [5, 13]?
A: The solubility at 3 h was 200 µM (≈ 100 µg/mL).

Q: And the solubility at 3 h [5, 14]?
A: The solubility at 3 h was 190 µM (≈ 95.4 µg/mL).

Q: And the “Metabolic stability in liver microsomes % Parent after 2 hrs, Monkey” value [6]?
A: The value was 63%.

Q: And the IC50 (CYP3A4)?
A: The IC50 was 1.04 µM.

Q: What about the IC50 (CYP2D6) of the same compound?
A: The IC50 was over 10 µM.

Q: Which “Metabolic stability in liver microsomes % Parent after 2 hrs, Rat” value [1] does the source give for `COP(=O)(C1=C(C(=O)NCc2ccncc2)N=C2C=CC(Cl)=C(F)C21)c1cc(C)cc(C)c1` (stereo not drawn) [Compound O] here?
A: The value was 2%.

Q: What about the “Metabolic stability in liver microsomes % Parent after 2 hrs, Human” value [2] of the same compound?
A: Its value is 15%.

Q: What about the fraction unbound at 6 h, 1 μM [3] of the same compound?
A: The fraction unbound at 6 h, 1 μM was 0.009.

Q: And the IC50 (CYP2C9)?
A: Its IC50 is 5.35 µM.

Q: What about the “Metabolic stability in liver microsomes % Parent after 2 hrs, Dog” value [4] of the same compound?
A: The value was 29%.

Q: And the solubility at 3 h [5, 11]?
A: Its solubility at 3 h is 820 µM (≈ 398 µg/mL).

Q: What about the solubility at 3 h [5, 12] of the same compound?
A: The solubility at 3 h was 590 µM (≈ 287 µg/mL).

Q: And the solubility at 3 h [5, 13]?
A: Its solubility at 3 h is 9.1 µM (≈ 4.42 µg/mL).

Q: What about the solubility at 3 h [5, 14] of the same compound?
A: Its solubility at 3 h is 10.1 µM (≈ 4.91 µg/mL).

Q: And the “Metabolic stability in liver microsomes % Parent after 2 hrs, Monkey” value [6]?
A: The value was 1%.

Q: What about the IC50 (CYP3A4) of the same compound?
A: The IC50 was 0.81 µM.

Q: And the IC50 (CYP2D6)?
A: Its IC50 is 1.35 µM.

Q: What does the source list for `COP(=O)(c1cc(C)cc(C)c1)c1c(C(=O)NCc2cc[n+]([O-])cc2)[nH]c2ccc(Cl)cc12` (stereo not drawn) [Compound D]?
A: Metabolic stability in liver microsomes % Parent after 2 hrs, Rat [1]: 1%; Metabolic stability in liver microsomes % Parent after 2 hrs, Human [2]: 76%; fraction unbound at 6 h, 1 μM [3]: 0.016; IC50 (CYP2C9): > 10 µM; Metabolic pathway (in vitro) [7]: Hydroxylation to CH3OH— to CHO— to COOH—; Metabolic stability in liver microsomes % Parent after 2 hrs, Dog [4]: 82%; AUCinf/Dose ([8]; IV, 1.0 mg/kg, PEG400): 188.3; CI ([8]; IV, 1.0 mg/kg, PEG400): 90.297 mL/min/kg; AUCinf/Dose ([8]; PO, 5.0 mg/kg, PEG400): 30.2; F ([8]; PO, 5.0 mg/kg, PEG400, oral bioavailability): 16.0%; AUC(0-inf) [8, 15]: 188 ng·h/mL; AUC(0-t) [8, 15]: 174 ng·h/mL; Cmax [8, 15]: 166 ng/mL; half-life ([8]; Sprague-Dawley, plasma, IV, 1.0 mg/kg): 0.9 h; Vd ([8]; Sprague-Dawley, plasma, IV, 1.0 mg/kg, PEG400, read-out: Vss): 6.37 L/kg; AUC(0-inf) [8, 16]: 151 ng·h/mL; AUC(0-t) [8, 16]: 132 ng·h/mL; Cmax [8, 16]: 45 ng/mL; Tmax [8, 16]: 0.5 h; half-life ([8]; Sprague-Dawley, plasma, PO, 5.0 mg/kg): 2.2 h; solubility at 3 h [5, 11]: 52 µM (≈ 25.2 µg/mL); solubility at 3 h [5, 12]: 74.2 µM (≈ 35.9 µg/mL); solubility at 3 h [5, 13]: 50.6 µM (≈ 24.5 µg/mL); solubility at 3 h [5, 14]: 66.8 µM (≈ 32.3 µg/mL); Metabolic stability in liver microsomes % Parent after 2 hrs, Monkey [6]: 24%; IC50 (CYP3A4): 1.07 µM; AUC(0-inf) [9, 17]: 1220 ng·h/mL; AUC(0-t) [9, 17]: 1010 ng·h/mL; Cmax [9, 17]: 430 ng/mL; half-life ([9]; Beagle, plasma, IV, 1.0 mg/kg, PEG400, read-out: T½ (converted)): 3.2 h; Vd ([9]; Beagle, plasma, IV, 1.0 mg/kg, PEG400, read-out: Vss): 3.72 L/kg; AUC(0-inf) [9, 18]: 747 ng·h/mL; AUC(0-t) [9, 18]: 696 ng·h/mL; Cmax [9, 18]: 116 ng/mL; Tmax [9, 18]: 2.7 h; half-life ([9]; Beagle, plasma, PO, 5.0 mg/kg, 0.5% MC, read-out: T½ (converted)): 2.6 h; AUCinf/Dose ([9]; IV, 1.0 mg/kg, PEG400): 1220.5; CI ([9]; IV, 1.0 mg/kg, PEG400): 13.7 mL/min/kg; AUCinf/Dose ([9]; PO, 5.0 mg/kg, 0.5% MC): 149.3; F ([9]; PO, 5.0 mg/kg, 0.5% MC, oral bioavailability): 12.4%; IC50 (CYP2D6): > 10 µM

Q: For `CCOC(=O)c1c(P(=O)(OCC)c2ccccc2)c2cc(Cl)ccc2n1S(=O)(=O)c1ccccc1` (stereo not drawn) [Example 3, Ethyl 5-chloro-3-[ethoxy(phenyl)phosphoryl]-1-(phenylsulfonyl)-1H-indole-2-carboxylate], which EC50 [10] is on record?
A: The EC50 was 0.0013 to 0.447 µM.
